Measurements published in patent US4870097A, “Pharmaceutical use of derivatives of tryptophan” (priority 1984, dated 1989).

Assays:
[1] = tested on: analgesic activity of morphine; assay: Tail Flick Test: increase in the analgesic effect of morphine; assay type: in vivo, rats; settings: for percentage variation in the latency of the pain sensation, 10' / percentage variation in the latency of the pain sensation, 20' / percentage variation in the latency of the pain sensation, 30' / percentage variation in the latency of the pain sensation, 45' / percentage variation in the latency of the pain sensation, 60' / percentage variation in the latency of the pain sensation, 90' / M(10'-90') average percentage variation: compound 10 mg/kg i.p. + morphine 2 mg/kg (row Morphine: alone); for percentage variation in the latency of the pain sensation, 10' / percentage variation in the latency of the pain sensation, 20' / percentage variation in the latency of the pain sensation, 30' / percentage variation in the latency of the pain sensation, 45' / percentage variation in the latency of the pain sensation, 60' / percentage variation in the latency of the pain sensation, 90': ± S.E.; for M(10'-90') average percentage variation: mean 10'-90'; for Potency ratio relative to morphine alone: rat, in vivo
Protocol: Increase in the analgesic effect of analgesic-narcotic drugs in rats in the Tail Flick Test
The method is that described by Harris et al. (J. Pharmacol. Exp. Ther. 143 (1964) 141-148).
Male rats are used which have a weight of about 150-200 g and which have not been fasting. A point is chosen on the tail and this is irradiated by a heat source (75° C.) and the time (in seconds) for which the animal remains without moving its tail is measured.
A maximum period of time under the heat source of 8 seconds is chosen after which the animal is, in any case, removed in order to avoid tissue damage. The measurement is effected before (controls) and after treatment with the drugs.
. The percentage variation is calculated for each individual animal by the following formula: [formula] The measurements are carried out 10, 20, 30, 45, 60 and 90 minutes after treatment with the analgesics.
The results obtained are given in Table 1 which records the groups treated and the doses administered, the
average percentage variations (calculated on groups of five animals) in […]

[2] = tested on: guinea pig gall bladder contracted with CCK-8; assay: Anti-CCK activity on guinea pig gall bladders in vitro; assay type: biochemical; settings: CCK-8 10 ng/ml, concentration antagonising 50% of contracting effect
Protocol: A longitudinal strip of guinea pig gall bladder is placed in a bath of Krebs for isolated organs at a temperature of 32° C. and oxygenated continuously with an oxygen-CO2 mixture (95-5 V/V).
The […] contractions are detected by means of a force transducer and recorded.
The gall bladder is contracted with the use of a CCK-8 solution at a concentration of 10 ng/ml; the antagonistic activity of the compounds of the invention towards the contracting effect of the CCK is determined with the use of different concentrations, the ED50 value, that is the concentration of the compound in mcg/ml capable of antagonising 50% of the contracting effect of the CCK, being determined.
The results obtained are set out in the following table which gives the compounds tested and the ED50 values which are calculated by the method of regression on a test of at least three experiments for each compound studied.

[3] = tested on: tolerance induced by morphine; assay: Antagonism to the development of tolerance to repeated administration of morphine HCl (tail flick); assay type: in vivo, rats
Protocol: Several of the compounds of the invention were examined to determine any capacity to antagonise the development of tolerance induced by morphine. Groups of six male rats having a weight of about 200-250 were used.
At intervals of 24 hours from the first treatment (time 0), each animal (except for the control group treated with a physiological solution) received 3 mg/kg of morphine hydrochloride i.p. together with 3 mg/kg i.p. of the compounds indicated (with the exception of the group treated solely with morphine).
The determination of the threshold for the pain stimulus was effected at 15°, 30', 45' and 60' intervals from the treatment by the "tail flick" test.

Row | SMILES | percentage variation in the latency of the pain sensation, 10' [1] [%] | percentage variation in the latency of the pain sensation, 20' [1] [%] | percentage variation in the latency of the pain sensation, 30' [1] [%] | percentage variation in the latency of the pain sensation, 45' [1] [%] | percentage variation in the latency of the pain sensation, 60' [1] [%] | percentage variation in the latency of the pain sensation, 90' [1] [%] | M(10'-90') average percentage variation [1] [%] | Potency ratio relative to morphine alone [1] | Anti CCK-8 activity, ED50 [2] [µg/mL] | percentage variation in the latency time, day 0 ([3]; day 0, 3 mg/kg i.p. + morphine HCl 3 mg/kg i.p. (row Morphine: alone)) [%] | percentage variation in the latency time, day 1 ([3]; day 1, 3 mg/kg i.p. + morphine HCl 3 mg/kg i.p. (row Morphine: alone)) [%] | percentage variation in the latency time, day 2 ([3]; day 2, 3 mg/kg i.p. + morphine HCl 3 mg/kg i.p. (row Morphine: alone)) [%] | percentage variation in the latency time, day 3 ([3]; day 3, 3 mg/kg i.p. + morphine HCl 3 mg/kg i.p. (row Morphine: alone)) [%] | percentage variation in the latency time, day 4 ([3]; day 4, 3 mg/kg i.p. + morphine HCl 3 mg/kg i.p. (row Morphine: alone)) [%] | percentage variation in the latency time, day 5 ([3]; day 5, 3 mg/kg i.p. + morphine HCl 3 mg/kg i.p. (row Morphine: alone)) [%] | percentage variation in the latency time, day 6 ([3]; day 6, 3 mg/kg i.p. + morphine HCl 3 mg/kg i.p. (row Morphine: alone)) [%] | percentage variation in the latency time, day 7 ([3]; day 7, 3 mg/kg i.p. + morphine HCl 3 mg/kg i.p. (row Morphine: alone)) [%] | regression line % Effect versus Day ([3]; days 0-7, 3 mg/kg + morphine (row Morphine: alone)) | day on which activity falls to 0 / inactive level is reached ([3]; from the straight lines of regression, groups C, D and E extrapolated)
1 | CCCCCCCCCc1ccc(C(=O)N[C@@H](Cc2c[nH]c3ccccc23)C(=O)O)cc1 [Compound 28] | 79.5 ± 12.7 | 100.0 ± 0.0 | 98.0 ± 2.0 | 100.0 ± 0.0 | 82.2 ± 17.8 | 78.8 ± 11.4 | 89.7 | 3.01 | 18.9 | – | – | – | – | – | – | – | – | – | –
2 | O=C(N[C@@H](Cc1c[nH]c2ccccc12)C(=O)O)c1ccc(Cl)cc1 [Compound 12] | 42.2 ± 19.4 | 50.5 ± 17.0 | 69.7 ± 19.8 | 68.9 ± 13.4 | 32.7 ± 20.1 | 16.3 ± 7.4 | 49.1 | 1.65 | 206.0 | – | – | – | – | – | – | – | – | – | –
3 | CCCCCc1ccc(C(=O)N[C@@H](Cc2c[nH]c3ccccc23)C(=O)O)cc1 [Compound 25] | 32.9 ± 17.3 | 63.7 ± 19.1 | 97.5 ± 2.5 | 100.0 ± 0.0 | 100.0 ± 0.0 | 82.9 ± 17.1 | 79.5 | 2.67 | 103.8 | – | – | – | – | – | – | – | – | – | –
4 | Cc1ccc(COC(=O)N[C@@H](Cc2c[nH]c3ccccc23)C(=O)O)cc1 [Compound 8] | 12.4 ± 4.9 | 38.4 ± 22.2 | 56.5 ± 20.3 | 48.0 ± 26.1 | 48.5 ± 21.5 | 54.4 ± 24.7 | 43.0 | 1.44 | 114.3 | – | – | – | – | – | – | – | – | – | –
5 | O=C(N[C@@H](Cc1c[nH]c2ccccc12)C(=O)O)c1cccc(Cl)c1 [Compound 16] | 25.2 ± 21.8 | 39.5 ± 26.1 | 37.7 ± 22.9 | 33.1 ± 19.9 | 25.9 ± 18.1 | 9.7 ± 11.9 | 28.5 | 0.96 | 197.5 | – | – | – | – | – | – | – | – | – | –
6 | CN1CC[C@]23c4c5ccc(O)c4O[C@H]2[C@@H](O)C=C[C@H]3[C@H]1C5 [Morphine, morphine, reference compound] | 10.8 ± 4.0 | 54.2 ± 17.0 | 46.6 ± 21.0 | 41.7 ± 16.0 | 32.0 ± 17.0 | -6.4 ± 10.0 | 29.8 | – | – | 35.83 | 37.43 | 30.33 | 16.06 | 22.46 | 9.63 | 7.28 | 1.95 | % Effect = - 5.34 Day + 38.72 | sixth
